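Cells were grown in 96-well plates and exposed to each compound for 48 hours at five concentrations; endpoints were interpolated linearly between bracketing concentrations, or set to the highest concentration if not reached. TGI marks complete inhibition of growth.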
Tests used:
Test in all cases: inhibition of tumour cell growth, NCI panel, 48 h
[1] = system: HOP-92 NSCLC
[2] = system: MDA-MB-435
[3] = system: HCC-2998 colon
[4] = system: NCI-H226 lung
[5] = system: SK-MEL-28 melanoma
[6] = system: SW-620 colon
[7] = system: PC-3 prostate
[8] = system: MDA-MB-231 breast
[9] = system: SNB-75 CNS
[10] = system: UACC-257 melanoma
[11] = system: OVCAR-4 ovarian

| Compound | TGI [1] [µM] | TGI [2] [µM] | TGI [3] [µM] | TGI [4] [µM] | TGI [5] [µM] | TGI [6] [µM] | TGI [7] [µM] | TGI [8] [µM] | TGI [9] [µM] | TGI [10] [µM] | TGI [11] [µM] |
| --- | --- | --- | --- | --- | --- | --- | --- | --- | --- | --- | --- |
| NC(=O)N/N=C(/CC1C(=O)Oc2ccccc21)c1ccccc1O (stereo unspecified) | > 100 | > 100 | 91.1 | 82.5 | > 100 | > 100 | > 100 | > 100 | > 100 | > 100 | > 100 |
| OC1(c2ccc(-c3ccccc3)cc2)c2ccccc2C2=NCCN21 (stereo unspecified) | > 100 | > 100 | 40.4 | 62 | 80.6 | > 100 | 62.9 | > 100 | 48.9 | > 100 | > 100 |
| COC(CN(C(C)=O)C1CCC2(SCCS2)c2[nH]c3ccccc3c21)OC (stereo unspecified) | > 100 | > 100 | > 100 | > 100 | > 100 | > 100 | > 100 | > 100 | > 100 | 3.36 | > 100 |
| O=C1C(Br)=C(c2ccccc2)O/C1=C/C(=O)c1ccc(Br)cc1 | > 100 | > 100 | > 100 | > 100 | > 100 | 47.3 | 53.3 | > 100 | > 100 |  | > 100 |
| Cc1cc2/c(=C\c3ccc(N(C)C)cc3)c3ccccc3n2[n+]1C | 3.52 | 1.84 | 1 | 5.87 | 3.19 | > 32 | 2.38 | 3.66 | 2.26 | 1.07 | 10.3 |
| COc1c(/C=C/C(C)(C)O)cc(C2CC(=O)c3c(O)cc(O)cc3O2)cc1CC=C(C)C (stereo unspecified) | 17.8 | 15.3 | 8.66 | 17.8 | 42.5 | > 50 | 16.3 | 15.1 | 22.8 | 15.9 | 24.6 |
| Cc1ccc(/C=N/n2c(-c3ccc(C)cc3)n[nH]c2=O)cc1 | > 100 | > 100 | > 100 | > 100 | > 100 | > 100 | > 100 | > 100 | > 100 | > 100 | > 100 |
| O=C(c1nc2ccc([N+](=O)[O-])cc2[nH]c1=O)C(O)c1ccc2c(c1)OCO2 (stereo unspecified) | > 100 | > 100 | > 100 | > 100 | > 100 | > 100 | > 100 | > 100 | > 100 | > 100 | > 100 |
| CC[C@@]1(O)C(=O)OCc2c1cc1n(c2=O)Cc2c-1nc1ccccc1c2/C=N\NC(=O)C1CCCN1 (stereo partly specified) | 21.2 | > 100 | > 53.7 | 2.8 | > 100 | > 73.8 | > 100 | > 100 | 1.8 | > 95.4 | > 100 |
| Cc1cnc2sn(-c3ccc([N+](=O)[O-])cc3)c(=O)c2c1 | > 100 | > 100 | > 100 | > 100 | > 100 | > 100 | > 100 | > 100 | 51.6 |  | > 100 |
| O=S(=O)(O)c1cc(N=Nc2c(O)ccc3ccccc23)ccc1/C=C/c1ccc(N=Nc2c(O)ccc3ccccc23)cc1S(=O)(=O)O | > 100 | > 100 |  | > 100 | > 100 | > 100 | > 100 | > 100 | > 100 | > 100 | > 100 |
| CC(=O)OC12C3C4C1C1C2C3C41OC(C)=O (stereo unspecified) | > 100 | > 100 | > 100 | > 100 | > 100 | > 100 | > 100 | > 100 | > 100 | > 100 | > 100 |
| CC(C)(C)OC(=O)N(CCCCNC(=O)OCc1ccccc1)CCCNC(=O)OCc1ccccc1 | 99.1 | > 100 | > 100 | > 100 | > 100 | > 100 | > 100 | > 100 | > 100 | > 100 | > 100 |
| CCP(=O)(CC)C(Cl)Cl | > 100 | > 100 | > 100 | > 100 | > 100 | > 100 | > 100 | > 100 | > 100 | > 100 | > 100 |
| COc1ccc2nc(-c3ccccc3)cc(OCC(=O)O)c2c1 | > 100 | > 100 | > 100 | > 100 | > 100 | > 100 | > 100 | > 100 | > 100 | > 100 |  |
| O=C(NCCN1CCOCC1)c1cn2c(ccc3sc4ccccc4c(=O)c32)n1 | > 100 | > 100 | 54.1 | > 100 | > 100 | 25.3 | > 100 | > 100 | 59.4 | > 100 |  |
| COc1ccc(-n2c(N)c(C#N)[nH]c2=O)cc1 | > 10 | > 10 | > 10 | > 10 | > 10 | > 10 | > 10 | > 10 | > 10 | > 10 | > 10 |

| Compound | TGI [1] [µM] | TGI [2] [µM] | TGI [3] [µM] | TGI [4] [µM] | TGI [5] [µM] | TGI [6] [µM] | TGI [7] [µM] | TGI [8] [µM] | TGI [9] [µM] | TGI [10] [µM] | TGI [11] [µM] |
| --- | --- | --- | --- | --- | --- | --- | --- | --- | --- | --- | --- |
| O=C(/C=C/c1cccc(Oc2ccccc2)c1)NCc1ccc(C(=O)NCc2ccccc2)cc1 | > 100 | > 100 | > 100 | 88.1 | > 100 | > 100 | > 100 | > 100 | 53.3 | > 100 | > 100 |
| CC1=NC2=Nc3nc(C)cc[n+]3CN2C=C1 | > 100 | > 100 | > 100 | > 100 | > 100 | > 100 | > 100 | > 100 | > 100 | > 100 | > 100 |
| CC(NC(=O)NC(C)(C)C)NC(=O)C(N)CC(=O)O (stereo unspecified) | > 100 | > 100 |  | > 100 | > 100 | > 100 | > 100 | > 100 | > 100 | > 100 | > 100 |
| c1ccc2c(c1)c1c(n2CCOCCN2CCCC2)CCCC1 | 86.9 | 33.8 | 30.2 | 49.5 | 29.4 | 32.1 | 66 | 31 | 76 | 53 | 73.8 |
| c1cc2c(cc1NC1=NCCO1)OCO2 | > 100 | > 100 | > 100 | > 100 | > 100 | > 100 | > 100 | > 100 | > 100 |  | > 100 |
| CC(C)(C)OC(=O)NC1CC2(C=C(Br)C(=O)C(Br)=C2)OC1=O (stereo unspecified) | 30.1 | 22.1 | 24.7 | 40.6 | 37.9 | 5.79 | 27.3 | 32.6 | 36.7 | 13 | 24.1 |
| CCN1CCC(O)(c2ccc(Oc3ccc(F)cc3)cc2)C(C(=O)c2ccc(Oc3ccc(F)cc3)cc2)C1 (stereo unspecified) | 24.4 | 30.8 | 23.6 | 29.5 | 30.5 | 30.3 | 26.4 | 26.6 | 30.3 | 29.8 | 29 |
| Nc1[nH]nc(Nc2ccc(Cl)cc2)c1P(=O)(c1ccccc1)c1ccccc1 | 70.8 | 42.8 | 60.2 | 50.2 | 64.9 | > 100 | 61.1 | 49.8 | 51.8 | > 100 | 80.8 |
| C=C(C(=O)O)[C@@H]1C[C@@H]2O[C@H]1[C@@H](O)[C@@H](C)CCCC(C)=CCC[C@@]2(C)O | > 100 | > 100 | > 100 | > 100 | > 100 | > 100 | > 100 | > 100 | > 100 | > 100 | > 100 |
| Cc1ccccc1OC(C)C(=O)NN1C(=O)CSC1c1ccc(Cl)cc1 (stereo unspecified) | > 100 | > 100 | > 100 | > 82.6 | > 100 | > 81.2 | > 100 | 86 | > 100 | > 100 | > 100 |
| CN(C)CCNC(=O)c1ccc(NCCCN(C)CCCNc2ccc(C(=O)NCCN(C)C)c3[nH]c4ccccc4c(=O)c23)c2c(=O)c3ccccc3[nH]c12 | 3.82 | 0.194 | 0.177 | 0.609 | 1.23 |  | 0.331 | 0.309 | 0.0844 | 1.26 | 0.247 |
| O=S(=O)(Nc1nc2ccccc2nc1Nc1ccc2ccccc2c1)c1ccccc1 | 51.3 | > 100 | 29 | > 84.2 | > 100 | > 100 | > 37.2 | > 100 | > 73.6 | > 100 | > 44.9 |
| CS(=O)(=O)OCCN(CCOS(C)(=O)=O)c1ccc(C=Nc2cccc(Cl)c2)cc1 | > 92.7 | 30.3 | 19.7 | 11 | > 30.4 | > 100 | > 100 | 48.6 | > 31.1 | 21.1 | > 63.6 |
| CC1(C)OC2[C@@H](CO[C@@]3([C@@H](O)CCO)OC(C)(C)O[C@@H]23)O1 (stereo partly specified) | > 100 | > 100 | > 100 | > 100 | > 100 | > 100 | > 100 | > 100 | > 100 | > 100 | > 100 |
| O=C1CC(c2ccccc2)C2(C(=O)NC(=S)NC2=O)C(c2ccccc2)C1 (stereo unspecified) | > 75 | > 75 | > 75 | > 75 | > 75 | > 75 | > 75 | > 75 | > 75 | > 75 | > 75 |
| CCOC(=O)c1c(N=P(c2ccccc2)(c2ccccc2)c2ccccc2)nnc(-c2ccccc2)c1-c1ccccc1 | > 100 | > 100 | > 100 | > 100 | > 100 | > 100 | > 100 | > 100 | > 100 | > 100 | > 100 |
| C/C(=N\N=C(\N)SB(F)F)c1ccc2ccccc2c1 | > 100 | > 100 | > 100 | > 100 | > 100 | > 100 | > 100 | > 100 | > 100 | > 100 | > 100 |

Source: PubChem BioAssay (NCI)
